Test results reported in patent publication US7396624B2, “Electrophotographic photoreceptor containing naphthalenetetracarboxylic acid diimide derivatives and electrophotographic imaging apparatus employing the same” (Samsung Electronics Co., Ltd., priority 2004, dated 2008).

Experiment: Solubility Test (amount of methylene chloride to completely dissolve 1 g of compound)
Format: physicochemical
Conditions: room temperature, methylene chloride added dropwise while stirring
Protocol: 1 g of the compound to be tested was added to a test tube at room temperature and methylene chloride was added dropwise while stirring to determine the amount of methylene chloride required to completely dissolve 1 g of the test compound.

Row | Structure (SMILES) | Amount of methylene chloride required to dissolve 1 g of a compound [g]
1 | CCC(CC)N1C(=O)c2ccc3c4c(ccc(c24)C1=O)C(=O)N(C(CC)CC)C3=O [Comparative Compound (10a)] | 17.5
2 | CCC(c1ccccc1)N1C(=O)c2ccc3c4c(ccc(c24)C1=O)C(=O)N(C(CC)c1ccccc1)C3=O (stereo not shown) [Compound (2)] | 2
3 | CC(c1ccccc1)N1C(=O)c2ccc3c4c(ccc(c24)C1=O)C(=O)N(C(C)c1ccccc1)C3=O (stereo not shown) [Compound (1)] | 3.5
4 | CC(C)N1C(=O)c2ccc3c4c(ccc(c24)C1=O)C(=O)N(C(C)C)C3=O [Comparative Compound (9a)] | 25
